Ki data for eight compounds are collected here from patent publication US20040248887A1, “Inhibitors of cathepsin S” (IRM LLC, priority 2003, published 2004).

Where two headings read alike, the source gives them in different places.

Type in all cases: biochemical
The target of one test is Cathepsin S (Homo sapiens, UniProt P25774). Briefly: Cathepsin S inhibition, fluorogenic peptide substrate kinetic assay. The following applies: Cathepsin S inhibition constant, pH5.5, read-out: Ki Cat. S. An outline of the steps:
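Reactions were started with 50 μM (final) acetyl-His-Pro-Val-Lys-aminocarbamoylcoumarin, and hydrolysis was followed by fluorescence (ex 380/em 450 nm). Apparent inhibition constants from enzyme progress curves were converted to Ki for competitive inhibitors using substrate concentration and Km.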

The next test addresses T1, Cathepsin K (Homo sapiens, UniProt P43235).
T1 sequence (P43235 115-329): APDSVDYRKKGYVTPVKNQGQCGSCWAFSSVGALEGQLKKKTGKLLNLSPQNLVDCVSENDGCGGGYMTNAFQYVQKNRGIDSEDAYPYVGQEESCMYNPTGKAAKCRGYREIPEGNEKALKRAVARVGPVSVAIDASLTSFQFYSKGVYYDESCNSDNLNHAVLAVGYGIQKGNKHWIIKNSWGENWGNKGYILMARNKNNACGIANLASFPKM
Briefly: Cathepsin K inhibition, fluorogenic peptide substrate kinetic assay. Particulars: Table III; Cathepsin K inhibition constant, pH5.5; read-out: Ki Cat. K. Here is the method:
(§1) The optimal substrate for cathepsin K, acetyl-lysine-histidine-proline-lysine-amino carbamoyl coumarin, was identified from screening a combinatorial library of fluorogenic peptide substrates (Harris, J. L., B. J. Backes, et al., Proc Natl Acad Sci U S A 2000, 97(14), 7754-9). Kinetic measurements are performed in a total reaction volume of 30 μl in 384-well microtiter plates. […] The reactions are initiated by adding the substrate, acetyl-lysine-histidine-proline-lysine-amino carbamoyl coumarin, to a final concentration of 40 μM. The rate of substrate hydrolysis is measured by monitoring the increase in fluorescence at an excitation wavelength of 380 nm and an emission wavelength of 450 nm that results from cleavage of the aniline bond in the substrate by the enzyme. The apparent inhibition constants for the compounds are determined from the enzyme progress curves (Kuzmic, P., K. C. Elrod, et al., Anal Biochem 2000, 286(1), 45-50) and are then used to calculate the inhibition constants for competitive inhibitors.

In the next test the target is Cathepsin L (Homo sapiens, UniProt P07711). Briefly: Cathepsin L inhibition, fluorogenic peptide substrate kinetic assay. Particulars: Table III; Cathepsin L inhibition constant, pH5.5; read-out: Ki Cat. L. As for the experimental part: as §1, with “Kinetic” for “The optimal substrate for cathepsin K, acetyl-lysine-histidine-proline-lysine-amino carbamoyl coumarin, was identified from screening a combinatorial library of fluorogenic peptide substrates (Harris, J. L., B. J. Backes, et al., Proc Natl Acad Sci U S A 2000, 97(14), 7754-9). Kinetic”, “acetyl-histidine-lysine-phenylalanine-lysine-amino” for “acetyl-lysine-histidine-proline-lysine-amino”, “20” for “40”

In the next test the target is Cathepsin B (Homo sapiens, UniProt P07858). Briefly: Cathepsin B inhibition, fluorogenic peptide substrate kinetic assay. Particulars: Table III; Cathepsin B inhibition constant, pH5.5; read-out: Ki Cat. B. Here is the method: The optimal substrate for cathepsin B, acetyl-histidine-proline-valine-lysine-amino carbamoyl coumarin, was identified from screening a combinatorial library of fluorogenic peptide substrates (Harris, J. L., B. J. Backes, et al., Proc Natl Acad Sci USA 2000, 97(14), 7754-9). Kinetic measurements are performed in a total reaction volume of 30 μl in 384-well microtiter plates. Cathepsin B, at a final concentration of 1.5 nM (active site), is incubated with the compounds at twelve varying concentrations in a buffer containing 100 mM NaAc (pH5.5), 1 mM EDTA, 100 mM NaCl, 0.01% Brij-35 for 20 minutes at room temperature. Control reactions in the absence of inhibitor are performed in replicates of 24. The reactions are initiated by adding the substrate, acetyl-histidine-proline-valine-lysine-amino carbamoyl coumarin, to a final concentration of 10 μM. The rate of substrate hydrolysis is measured by monitoring the increase in fluorescence at an excitation wavelength of 380 nm and an emission wavelength of 450 nm that results from cleavage of the aniline bond in the substrate by the enzyme. The apparent inhibition constants for the compounds are determined from the enzyme progress curves (Kuzmie, P., K. C. Elrod, et al., Anal Biochem 2000, 286(1), 45-50) and are then used to calculate the inhibition constants for competitive inhibitors.

What is called Ki is a dissociation constant, usually derived from enzyme kinetics or from competition with a known ligand.

Chain of Cathepsin S (P25774 115-331, species assumed): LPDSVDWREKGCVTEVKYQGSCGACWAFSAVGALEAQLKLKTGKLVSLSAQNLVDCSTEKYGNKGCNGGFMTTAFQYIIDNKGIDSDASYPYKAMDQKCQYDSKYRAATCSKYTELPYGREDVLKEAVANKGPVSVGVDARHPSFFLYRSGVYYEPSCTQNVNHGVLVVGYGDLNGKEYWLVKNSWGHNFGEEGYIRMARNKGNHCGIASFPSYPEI
Chain of Cathepsin L (P07711 114-333, species assumed): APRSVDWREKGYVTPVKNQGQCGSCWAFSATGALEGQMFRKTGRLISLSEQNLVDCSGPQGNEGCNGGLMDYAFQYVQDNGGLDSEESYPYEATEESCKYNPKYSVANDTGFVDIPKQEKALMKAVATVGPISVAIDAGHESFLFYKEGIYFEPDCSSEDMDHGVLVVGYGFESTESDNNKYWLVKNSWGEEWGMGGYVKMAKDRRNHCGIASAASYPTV

Consider `Cc1cccc(S(=O)(=O)N[C@@H](CC2CCCCC2)C(=O)N[C@@H](C)CN2CCc3cc(F)ccc32)c1` [Compound 251, (S,S)-3-Cyclohexyl-N-[2-(5-fluoro-2,3-dihydro-indol-1-yl)-1-methyl-ethyl]-2-(toluene-3-sulfonylamino)-propionamide], for which the Ki at Cathepsin S (Table II) is < 0.1 µM; on Cathepsin S (Table III) it was < 0.1 µM; on Cathepsin K, > 10 µM; on Cathepsin L it was < 10 µM; on Cathepsin B it was > 10 µM.
On to `COC(=O)c1cccc(NC[C@H](C)NC(=O)[C@H](CC2CCCCC2)NC(=O)c2ccc(-c3cccc(F)c3)o2)c1` [Compound 110, 3-[2-(S)-(3-Cyclohexyl-2-(S)-{[5-(3-fluoro-phenyl)-furan-2-carbonyl]-amino}-propionylamino)-propylamino]-benzoic acid methyl ester], for which the Ki at Cathepsin S (Table II) is < 1 µM; at Cathepsin S (Table III), < 1 µM; at Cathepsin K, < 10 µM; on Cathepsin L it was < 10 µM; at Cathepsin B, > 10 µM.
Consider `COc1cccc(C(=O)N[C@@H](CC2CCCCC2)C(=O)N[C@@H](CN2CCOCC2)CN2CCc3cc(F)ccc32)c1` [Compound 151, N-{2-Cyclohexyl-1-(S)-[2-(5-fluoro-2,3-dihydro-indol-1-yl)-1-(S)-morpholin-4-ylmethyl-ethylcarbamoyl]-ethyl}-3-methoxy-benzamide], for which the Ki at Cathepsin S (Table II) was < 0.1 µM; on Cathepsin S (Table III), < 0.1 µM; on Cathepsin K, < 10 µM; at Cathepsin L, < 0.1 µM; on Cathepsin B it was > 10 µM.
For the compound `Cn1nc(C(F)(F)F)cc1-c1ccc(S(=O)(=O)N[C@@H](CC2CCCCC2)C(=O)NCCN2CCc3cc(F)ccc32)s1` [Compound 231, (S)-3-Cyclohexyl-N-[2-(5-fluoro-2,3-dihydro-indol-1-yl)-ethyl]-2-[5-(2-methyl-5-trifluoromethyl-2H-pyrazol-3-yl)-thiophene-2-sulfonylamino]-propionamide], the Ki was < 0.1 µM at Cathepsin S (Table II); < 0.1 µM at Cathepsin S (Table III); > 10 µM at Cathepsin K; > 10 µM at Cathepsin L; > 10 µM at Cathepsin B.
With `C[C@@H](CNc1cccc(C(N)=O)c1)NC(=O)[C@H](CC(C)(C)C)NC(=O)c1ccc(-c2cccc(F)c2)o1` [Compound 131, 5-(3-Fluoro-phenyl)-furan-2-carboxylic acid {1-(S)-[2-(3-carbamoyl-phenylamino)-1-(S)-methyl-ethylcarbamoyl]-3,3-dimethyl-butyl}-amide], the Ki was < 0.1 µM on Cathepsin S (Table II); < 0.1 µM on Cathepsin S (Table III); < 1 µM on Cathepsin K; > 10 µM at Cathepsin L; > 10 µM at Cathepsin B.
As to `Cc1cccc(C(=O)N[C@@H](CC2CCCCC2)C(=O)NCCN2CCc3cc(F)ccc32)c1` [Compound 71, N—(S)-{2-cyclohexyl-1-[2-(5-fluoro-2,3-dihydro-indol-1-yl)-ethylcarbamoyl]-ethyl}-3-methyl-benzamide], the Ki at Cathepsin S (Table II) is < 0.1 µM; on Cathepsin S (Table III) it was < 0.1 µM; on Cathepsin K it was < 10 µM; at Cathepsin L, < 0.1 µM; on Cathepsin B, > 10 µM.
For `Cc1ccccc1C(C)C(=O)N[C@@H](CC1CCCCC1)C(=O)NCCN1CCc2cc(F)ccc21` (stereo partly drawn) [Compound 61, N-{2-cyclohexyl-1-(S)-[2-(5-fluoro-2,3-dihydro-indol-1-yl)-ethylcarbamoyl]-ethyl}-2-o-tolyl-propionamide], the Ki on Cathepsin S (Table II) is < 0.1 µM; on Cathepsin S (Table III), < 0.1 µM; on Cathepsin K, > 10 µM; on Cathepsin L, < 0.1 µM; at Cathepsin B, > 10 µM.
As to `C[C@@H](CNc1ccc(OC(F)(F)F)cc1)NC(=O)[C@H](CC1CCCCC1)NS(=O)(=O)c1cccc(Cl)c1` [Compound 181, (S,S)-2-(3-Chloro-benzenesulfonylamino)-3-cyclohexyl-N-[1-methyl-2-(4-trifluoromethoxy-phenylamino)-ethyl]-propionamide], the Ki at Cathepsin S (Table II) was < 0.1 µM; on Cathepsin S (Table III), < 0.1 µM; on Cathepsin K, > 10 µM; at Cathepsin L, < 10 µM; on Cathepsin B, > 10 µM.
